Assay results published in patent US20150175877A1, “ENVIRONMENTALLY ACCEPTABLE MULTIFUNCTIONAL ADDITIVE” (SCHLUMBERGER TECHNOLOGY CORPORATION, priority 2013, published 2015).

Test system: bacteria in North Sea location water
Test: Bacteria growth study in water using dipslides
Assay type: cell-based
Settings: 35° C., dipslide; for Bacteria count: two replicated tests
Method: Bacteria Growth Study at 35° C. [95° F.]
Following is the qualitative study of bacteria growth in water using dipslides. A dipslide is used to test the presence of microorganisms in liquids. Dipslides are the fastest and easiest way to measure the microbial activity in liquid-based systems and in this testing it is used to evaluate the performance of Bodoxin AE.

## OCOCCOCO [Bodoxin AE, (ethylenedioxy)dimethanol]
Compared with tap or distilled water
  Bacteria count in location water when biocide is used (in words): reduced significantly reaching the same level as tap or distilled water
Biocide conc. 0.50 gpt
  Bacteria count: <10^3 (CFU/ml)
Biocide conc. 1.00 gpt
  Bacteria count: <10^3 (CFU/ml)
Biocide conc. 1.50 gpt
  Bacteria count: <10^3 (CFU/ml)
